Experimental findings from patent publication US9422332B2, “Azaheterocycles as BIR2 and/or BIR3 inhibitors” (Hoffmann-La Roche Inc., priority 2012, dated 2016) are described below.

pIC50: −log10 of the molar value.

Experiment [1] deals with BIR2 domain of XIAP (Homo sapiens (Human), UniProt P98170, C202A/C213G). Kind of experiment: TR-FRET assay for BIR2 (inhibition of binding of XIAP BIR2 domain to Peptide A). Conditions: 6x His-tagged BIR2 domain (aa 124-240 of XIAP), 20 nM Peptide A. The procedure:
(§1) TR-FRET Assay for BIR2 and BIR3
(§2) The peptides were labeled with the fluorescent tags FITC or TAMRA and Kd values were determined by fluorescence polarization assay. […] The peptide sequence was derivatized with biotin to provide […]-(ε-biotin)-OH 1:2 TFA as the substrate for the TR-FRET assay.
The XIAP protein sequence was obtained from the SWISS-PROT protein sequence database and the BIR2 and BIR3 domains were derived from that. The sequence of the BIR2 domain used for the TR-FRET assay is
(§3) Time-resolved fluorescence resonance energy transfer (TR-FRET) signals were measured 1 hour later at room temperature. Test compound potency was assessed at 10 serially diluted concentrations. Percentage of inhibition at each concentration was determined to generate an IC50 value for each test compound.

Experiment [2] has as its target BIR3 domain of XIAP (Homo sapiens (Human), UniProt P98170). As to the kind of experiment: TR-FRET assay for BIR3 (inhibition of binding of XIAP BIR3 domain to Peptide A). The settings on record: 6x His-tagged BIR3 domain (aa 241-356 of XIAP), 20 nM Peptide A. The procedure: as §1, §2
The sequence of the BIR3 domain used for the TR-FRET assay is
as §3

Chain of BIR2 domain of XIAP (P98170 other isoform, or with tags, fused parts or gaps, stated change not applied): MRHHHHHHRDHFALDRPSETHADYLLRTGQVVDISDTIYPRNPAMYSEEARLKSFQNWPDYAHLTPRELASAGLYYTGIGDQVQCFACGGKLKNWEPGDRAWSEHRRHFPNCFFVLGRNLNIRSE
Chain of BIR3 domain of XIAP (P98170 other isoform, or with tags, fused parts or gaps): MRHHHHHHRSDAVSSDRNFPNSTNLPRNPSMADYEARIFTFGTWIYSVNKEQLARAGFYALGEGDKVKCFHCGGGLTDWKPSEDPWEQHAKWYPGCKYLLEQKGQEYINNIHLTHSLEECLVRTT

As to `CN[C@@H](C)C(=O)N[C@H](C(=O)N1CCc2ccc(F)cc2[C@H]1C(=O)Nc1c(F)cccc1F)C(C)C` [Example 42, N-(2,6-difluorophenyl)-7-fluoro-2-((S)-3-methyl-2-((S)-2-(methylamino)propanamido)butanoyl)-1,2,3,4-tetrahydroisoquinoline-1-carboxamide], the pIC50 in experiment [1] is 7.57; in experiment [2], below 4.26.
For `CN[C@@H](C)C(=O)N[C@H](C(=O)N1CCc2ccc(Cl)cc2[C@@H]1C(=O)Nc1c(F)cccc1F)C(C)C` [Example 44, 7-chloro-N-(2,6-difluorophenyl)-2-((S)-3-methyl-2-((S)-2-(methylamino)propanamido)butanoyl)-1,2,3,4-tetrahydroisoquinoline-1-carboxamide], the results for the pIC50 in experiment [1] and in experiment [2] were 5.33 and below 4.26, respectively.
With `CN[C@@H](C)C(=O)N[C@H](C(=O)N1CCc2ccc(Cl)cc2[C@H]1C(=O)Nc1c(F)cccc1F)C(C)C` [Example 45, 7-chloro-N-(2,6-difluorophenyl)-2-((S)-3-methyl-2-((S)-2-(methylamino)propanamido)butanoyl)-1,2,3,4-tetrahydroisoquinoline-1-carboxamide], the pIC50 in experiment [1] was 7.33; in experiment [2] it was below 4.26.
Taken in the same sequence, the figures for `CN[C@@H](C)C(=O)N[C@H](C(=O)N1CCc2ccc(F)cc2[C@@H]1C(=O)Nc1c(F)cccc1F)C(C)C` [Example 41, N-(2,6-difluorophenyl)-7-fluoro-2-((S)-3-methyl-2-((S)-2-(methylamino)propanamido)butanoyl)-1,2,3,4-tetrahydroisoquinoline-1-carboxamide] were 5.63 and below 4.26.
